Laboratory results from patent publication US8952024B2, “Herbicidal pyrimidone derivatives” (E I du Pont de Nemours and Company, priority 2009, dated 2015).

How the values were obtained:
Format in all cases: in vivo
rice (Oryza sativa) = assay: Test B flooded paddy test; conditions: for Plant response rating, Flood, Rice: 250 g ai/ha, flooded paddy test, visual rating on 0 to 100 scale (0 no effect, 100 complete control) after 13 to 15 days; for Plant response rating, Rice: Flood (flooded paddy test), 13 to 15 days; for Rice plant response rating: Flood, 31 g ai/ha, scale 0 to 100 (0 no effect, 100 complete control)
Outline: (§1)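 Rice, umbrella sedge, ducksalad and barnyardgrass were grown to the 2-leaf stage, flooded to 3 cm, and compound was applied directly to the paddy water, with that depth kept throughout. After 13 to 15 days in the greenhouse, plants were visually rated against controls on a 0 (no effect) to 100 (complete control) scale.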

[1] = test system: barnyardgrass (Echinochloa crus-galli); assay: Test B flooded paddy test; conditions: for Plant response rating, Flood, Barnyardgrass: 250 g ai/ha, flooded paddy test, visual rating on 0 to 100 scale (0 no effect, 100 complete control) after 13 to 15 days; for Plant response rating, Barnyardgrass: Flood (flooded paddy test), 13 to 15 days; for Barnyardgrass plant response rating: Flood, 31 g ai/ha, scale 0 to 100 (0 no effect, 100 complete control)
Outline: as §1

[2] = test system: ducksalad (Heteranthera limosa); assay: Test B flooded paddy test; conditions: for Plant response rating, Flood, Ducksalad: 250 g ai/ha, flooded paddy test, visual rating on 0 to 100 scale (0 no effect, 100 complete control) after 13 to 15 days; for Plant response rating, Ducksalad: Flood (flooded paddy test), 13 to 15 days; for Ducksalad plant response rating: Flood, 31 g ai/ha, scale 0 to 100 (0 no effect, 100 complete control)
Outline: as §1

[3] = test system: umbrella sedge (Cyperus difformis); assay: Test B flooded paddy test; conditions: for Plant response rating, Flood, Sedge, Umbrella: 250 g ai/ha, flooded paddy test, visual rating on 0 to 100 scale (0 no effect, 100 complete control) after 13 to 15 days; for Plant response rating, Sedge, Umbrella: Flood (flooded paddy test), 13 to 15 days; for Sedge, Umbrella plant response rating: Flood, 31 g ai/ha, scale 0 to 100 (0 no effect, 100 complete control)
Outline: as §1

[4] = test system: pigweed (Amaranthus retroflexus); assay: Test A pre-/postemergence plant response
Outline: (§2)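 Both pre- and postemergence treatments are applied simultaneously, using chemicals formulated in a non-phytotoxic solvent mixture with surfactant. Postemergence plants are 2–10 cm high with one to two leaves. After approximately ten days in a greenhouse, injury is scored visually from 0 (none) to 100 (complete control) relative to untreated plants.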

[5] = test system: morningglory (Ipomoea spp.); assay: Test A pre-/postemergence plant response
Outline: as §2

[6] = test system: wheat (Triticum aestivum); assay: Test B pre-/postemergence plant response; conditions: for Wheat plant response rating (0 to 100 scale): 62 g ai/ha, 0 is no effect, 13 to 15 days
Outline: (§3)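 Visually scored on a 0 to 100 scale after 13 to 15 days in greenhouse versus controls. Treatments were preemergence on seeded loam/sand soil and postemergence on 1- to 4-leaf plants.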

[7] = test system: goosegrass (Eleusine indica); assay: Test B pre-/postemergence plant response; conditions: for Goosegrass plant response rating (0 to 100 scale): 62 g ai/ha, 0 is no effect, 13 to 15 days
Outline: as §3

[8] = test system: woolly cupgrass (Eriochloa villosa); assay: Test B pre-/postemergence plant response; conditions: for Cupgrass, Woolly plant response rating (0 to 100 scale): 62 g ai/ha, 0 is no effect, 13 to 15 days
Outline: as §3

[9] = test system: giant foxtail (Setaria faberii); assay: Test B pre-/postemergence plant response; conditions: for Foxtail, Giant plant response rating (0 to 100 scale): 62 g ai/ha, 0 is no effect, 13 to 15 days
Outline: as §3

[10] = test system: johnsongrass (Sorghum halepense); assay: Test B pre-/postemergence plant response; conditions: for Johnsongrass plant response rating (0 to 100 scale): 62 g ai/ha, 0 is no effect, 13 to 15 days
Outline: as §3

[11] = test system: morningglory (Ipomoea coccinea); assay: Test B pre-/postemergence plant response; conditions: for Morningglory plant response rating (0 to 100 scale): 62 g ai/ha, 0 is no effect, 13 to 15 days
Outline: as §3

[12] = 62 g ai/ha, scale of 0 to 100 where 0 is no effect and 100 is complete control
[13] = 125 g ai/ha, scale 0 to 100, 0 is no effect, 100 is complete control
[14] = Postemergence, 125 g ai/ha, 0 to 100 scale where 0 is no effect and 100 is complete control
[15] = Postemergence, 500 g ai/ha, 0 to 100 scale, 0 = no effect, 100 = complete control, approx. ten days
[16] = Preemergence, 125 g ai/ha, 0 to 100 scale, 0 = no effect, 100 = complete control
[17] = Preemergence, 500 g ai/ha, visual injury, 0 to 100 scale (0 no effect, 100 complete control), approx. ten days
[18] = 31 g ai/ha, postemergence, scale 0 to 100, 0 is no effect, 100 is complete control
[19] = postemergence, 100 is complete control
[20] = Postemergence, 250 g ai/ha, scale 0 to 100 (0 no effect, 100 complete control)
[21] = Postemergence, 125 g ai/ha, visual rating after 13 to 15 days, scale 0 (no effect) to 100 (complete control)

CCCn1c(-c2ccsc2)ncc(C(=O)C2=C(O)CCCC2=O)c1=O [Compound 93]
Plant response rating, Flood, Rice (rice (Oryza sativa)): 45
Plant response rating, Rice (rice (Oryza sativa); [12]): 15
Plant response rating, Rice (rice (Oryza sativa); [13]): 20
Rice plant response rating (rice (Oryza sativa)): 0
Plant response rating, Flood, Barnyardgrass [1]: 85
Plant response rating, Barnyardgrass [1, 12]: 60
Plant response rating, Barnyardgrass [1, 13]: 75
Barnyardgrass plant response rating [1]: 30
Plant response rating, Flood, Ducksalad [2]: 80
Plant response rating, Ducksalad [2, 12]: 55
Plant response rating, Ducksalad [2, 13]: 80
Ducksalad plant response rating [2]: 40
Plant response rating, Flood, Sedge, Umbrella [3]: 90
Plant response rating, Sedge, Umbrella [3, 12]: 75
Plant response rating, Sedge, Umbrella [3, 13]: 80
Sedge, Umbrella plant response rating [3]: 70
Plant response rating, Pigweed [4, 14]: 100
Plant response rating, Pigweed [4, 15]: 100
Plant response rating, Pigweed [4, 16]: 100
Plant response rating, Pigweed [4, 17]: 100
Plant response rating, Morningglory [5, 14]: 100
Plant response rating, Morningglory [5, 15]: 100
Plant response rating, Morningglory [5, 16]: 80
Plant response rating, Morningglory [5, 17]: 90
Plant response rating, Wheat [6, 18]: 0
Wheat plant response rating (0 to 100 scale) [6, 19]: 0
Plant response rating, Wheat [6, 20]: 5
Plant response rating, Goosegrass [7, 18]: 60
Goosegrass plant response rating (0 to 100 scale) [7, 19]: 65
Plant response rating, Goosegrass [7, 20]: 75
Plant response rating, Cupgrass, Woolly [8, 18]: 45
Cupgrass, Woolly plant response rating (0 to 100 scale) [8, 19]: 45
Plant response rating, Cupgrass, Woolly [8, 21]: 65
Plant response rating, Cupgrass, Woolly [8, 20]: 70
Plant response rating, Foxtail, Giant [9, 18]: 70
Foxtail, Giant plant response rating (0 to 100 scale) [9, 19]: 80
Plant response rating, Foxtail, Giant [9, 20]: 85
Plant response rating, Johnsongrass [10, 18]: 10
Johnsongrass plant response rating (0 to 100 scale) [10, 19]: 10
Plant response rating, Johnsongrass [10, 20]: 70
Plant response rating, Morningglory [11, 18]: 70
Morningglory plant response rating (0 to 100 scale) [11, 19]: 80
Plant response rating, Morningglory [11, 20]: 100

CCCCCCn1c(-c2ccccc2)ncc(C(=O)C2=C(O)CCCC2=O)c1=O [Compound 94]
Plant response rating, Flood, Rice (rice (Oryza sativa)): 35
Plant response rating, Rice (rice (Oryza sativa); [12]): 0
Plant response rating, Rice (rice (Oryza sativa); [13]): 20
Rice plant response rating (rice (Oryza sativa)): 0
Plant response rating, Flood, Barnyardgrass [1]: 60
Plant response rating, Barnyardgrass [1, 12]: 0
Plant response rating, Barnyardgrass [1, 13]: 40
Barnyardgrass plant response rating [1]: 0
Plant response rating, Flood, Ducksalad [2]: 30
Plant response rating, Ducksalad [2, 12]: 20
Plant response rating, Ducksalad [2, 13]: 25
Ducksalad plant response rating [2]: 0
Plant response rating, Flood, Sedge, Umbrella [3]: 85
Plant response rating, Sedge, Umbrella [3, 12]: 70
Plant response rating, Sedge, Umbrella [3, 13]: 85
Sedge, Umbrella plant response rating [3]: 20
Plant response rating, Pigweed [4, 14]: 100
Plant response rating, Pigweed [4, 15]: 100
Plant response rating, Pigweed [4, 16]: 70
Plant response rating, Pigweed [4, 17]: 100
Plant response rating, Morningglory [5, 14]: 100
Plant response rating, Morningglory [5, 15]: 100
Plant response rating, Morningglory [5, 16]: 10
Plant response rating, Morningglory [5, 17]: 40
Plant response rating, Wheat [6, 18]: 0
Wheat plant response rating (0 to 100 scale) [6, 19]: 0
Plant response rating, Wheat [6, 20]: 5
Plant response rating, Goosegrass [7, 18]: 45
Goosegrass plant response rating (0 to 100 scale) [7, 19]: 70
Plant response rating, Goosegrass [7, 20]: 85
Cupgrass, Woolly plant response rating (0 to 100 scale) [8, 19]: 65
Plant response rating, Cupgrass, Woolly [8, 21]: 65
Plant response rating, Cupgrass, Woolly [8, 20]: 70
Plant response rating, Foxtail, Giant [9, 18]: 65
Foxtail, Giant plant response rating (0 to 100 scale) [9, 19]: 75
Plant response rating, Foxtail, Giant [9, 20]: 98
Johnsongrass plant response rating (0 to 100 scale) [10, 19]: 15
Plant response rating, Johnsongrass [10, 20]: 45
Plant response rating, Morningglory [11, 18]: 55
Morningglory plant response rating (0 to 100 scale) [11, 19]: 75
Plant response rating, Morningglory [11, 20]: 100

CCOCCn1c(-c2ccccc2)ncc(C(=O)C2=C(O)CCCC2=O)c1=O [Compound 96]
Plant response rating, Flood, Rice (rice (Oryza sativa)): 15
Plant response rating, Rice (rice (Oryza sativa); [12]): 15
Plant response rating, Rice (rice (Oryza sativa); [13]): 15
Rice plant response rating (rice (Oryza sativa)): 10
Plant response rating, Flood, Barnyardgrass [1]: 85
Plant response rating, Barnyardgrass [1, 12]: 65
Plant response rating, Barnyardgrass [1, 13]: 80
Barnyardgrass plant response rating [1]: 60
Plant response rating, Flood, Ducksalad [2]: 75
Plant response rating, Ducksalad [2, 12]: 0
Plant response rating, Ducksalad [2, 13]: 50
Ducksalad plant response rating [2]: 0
Plant response rating, Flood, Sedge, Umbrella [3]: 90
Plant response rating, Sedge, Umbrella [3, 12]: 75
Plant response rating, Sedge, Umbrella [3, 13]: 85
Sedge, Umbrella plant response rating [3]: 50
Plant response rating, Pigweed [4, 14]: 100
Plant response rating, Pigweed [4, 15]: 100
Plant response rating, Pigweed [4, 16]: 100
Plant response rating, Pigweed [4, 17]: 100
Plant response rating, Morningglory [5, 14]: 100
Plant response rating, Morningglory [5, 15]: 100
Plant response rating, Morningglory [5, 16]: 80
Plant response rating, Morningglory [5, 17]: 80
Plant response rating, Wheat [6, 18]: 0
Wheat plant response rating (0 to 100 scale) [6, 19]: 5
Plant response rating, Wheat [6, 20]: 15
Plant response rating, Goosegrass [7, 18]: 70
Goosegrass plant response rating (0 to 100 scale) [7, 19]: 70
Plant response rating, Goosegrass [7, 20]: 85
Plant response rating, Cupgrass, Woolly [8, 18]: 70
Cupgrass, Woolly plant response rating (0 to 100 scale) [8, 19]: 75
Plant response rating, Cupgrass, Woolly [8, 21]: 85
Plant response rating, Cupgrass, Woolly [8, 20]: 85
Plant response rating, Foxtail, Giant [9, 18]: 65
Foxtail, Giant plant response rating (0 to 100 scale) [9, 19]: 70
Plant response rating, Foxtail, Giant [9, 20]: 85
Plant response rating, Johnsongrass [10, 18]: 20
Johnsongrass plant response rating (0 to 100 scale) [10, 19]: 45
Plant response rating, Johnsongrass [10, 20]: 80
Plant response rating, Morningglory [11, 18]: 65
Morningglory plant response rating (0 to 100 scale) [11, 19]: 95
Plant response rating, Morningglory [11, 20]: 100
